# Assay results as given in patent US20260207769A1, “ANTIBODY DRUG CONJUGATES” (YALE UNIVERSITY, priority 2022, published 2026).
# What was measured:
# [1] = test system: HCT116- IDH1^mut cells; assay: Cell viability of HCT116-IDH1mut cells; format: cell-based
# Procedure: (§1) WT and mutant IDH1 (IDH1^mut) HCT116 cells were treated with different concentrations of SN38, cD31N antibody, or cD31N-SN38 conjugate. The effects of 3E10-cD31N-SN38 conjugate treatment on HCT116 WT and HCT116IDH1^mut were investigated.
# [2] = test system: WT HCT116 cells; assay: Clonogenic assay in WT HCT116 cells; format: cell-based
# Procedure: (§2) Clonogenic or colony formation assays are in vitro assays that can measure the survival or growth of cells on a single-cell level based on the ability of a single cell to grow into a colony. WT or BRCA2^−/− DLD-1 cells were plated with different concentrations of SN38, 3E10 antibody, or 3E10-SN38 conjugate added into the clonogenic assay media. After 7 days for WT cells or 10 days for BRCA2^−/− cells, colony numbers were counted to quantify DLD-1 cell survival. […] Consistent with earlier results, DLD-1 cell survival was concentration-dependent.
# (§3) The effects of treatment with SN38 or 3E10-SN38 conjugates on HCT116 cells were tested in clonogenic assays as previously described. WT and IDH1^mut HCT116 cells were treated with SN38, cD31N antibody, or cD31N-SN38 conjugate. Cell survival of WT (FIG. 25A) and IDH1^mut HCT116 cells (FIG. 25B) was quantified after 7 days for WT cells or 10 days for […].
# [3] = test system: HCT116 colorectal cancer cells; assay: Cell viability of WT HCT116 cells; format: cell-based
# Procedure: as §1
# [4] = test system: WT DLD-1 cells; assay: Single 24 hour treatment, long-term viability of WT DLD-1 cells; format: cell-based, human; conditions: WT DLD-1, 24 hour treatment, days 3, 5 and 7
# Procedure: (§4) The effects of treatment with the SN38 or 3E10-SN38 conjugates on the colorectal cancer DLD-1 cell line were investigated. WT and BRCA2^−/− deficient DLD-1 cells were tested. FIG. 13 provides the study protocol and timeline. Each well of a 96-well plate was loaded with 1000 DLD-1 cells. 24 hours post-plating, cells were treated with different concentrations of cWT-SN38 conjugate, cD31N-SN38 conjugate, or SN38 for 24 hours. After treatment, the media was replaced with fresh treatment-free media and was not changed again. Cell viability and half maximal effective concentration (EC50) were tracked every 48 hours post-treatment on days 3, 5, and 7. Half maximal effective concentration (EC50) is a measure of the concentration of a drug, antibody or toxicant which induces a response halfway between the baseline and maximum after a specified exposure time.
# [5] = test system: BRCA2^−/− DLD-1 cells; assay: Single 24 hour treatment, long-term viability of BRCA2-/- DLD-1 cells; format: cell-based, human; conditions: BRCA2-/- DLD-1, 24 hour treatment, days 3, 5 and 7
# Procedure: as §4
# [6] = test system: SKOV3 ovarian cancer cells; assay: Cell viability of SKOV3 cells at 7 days of treatment; format: cell-based
# Procedure: The effect of SN38 and 3E10-SN38 conjugates were investigated in SKOV3 ovarian cancer cells. SKOV3 cells were treated with SN38, various 3E10 antibodies and 3E10-SN38 conjugates.
# EC50 values are also included.
# The EC50 values were calculated and are set forth below in Table 4.
# [7] = test system: DNA damage response proteins, such as 7H2AX, p-ATM, and p-ATR; assay: Western blot of DNA damage response proteins in DLD-1 cells after 96 hours; format: cell-based, human; conditions: 100 nM
# Procedure: To measure the expression of DNA damage response proteins at a later time point, DLD-1 cells were treated with 100 nM of SN38, cD31N antibody, or cD31N-SN38 conjugate and collected for Western blot after 96 hours (4 days). Results at the 96 hour time point were consistent with the 24 and 48 hour results.
# [8] = test system: DNA damage response proteins such as γH2AX, p-ATM, and p-ATR; assay: Western blot of DNA damage response proteins in BRCA2-/- DLD-1 cells; format: cell-based, human
# Procedure: SN38 causes DNA damage via inhibition of topoisomerase I. Therefore, DNA damage was measured in both wild-type (WT) and BRCA2 deficient (BRCA2′) DLD-1 cells by induction of γH2AX after treatment with one of the following: no treatment (NT), SN38 alone (SN38), wild-type 3E10 antibody alone (cWT), 3E10-cD31N antibody alone, cWT-SN38 conjugate, or cD31N-SN38 conjugate. After treatment with 100 nM of the antibody or conjugate for 48 hours, the DLD-1 cells were collected for Western blot analysis to measure 7H2AX protein levels. […] These findings were consistent in both WT and BRCA2^−/− DLD-1 cells, but γH2AX protein levels were elevated across all groups in BRCA2^−/− DLD-1 cells.
# DNA damage caused by SN38 or 3E10-SN38 conjugates in WT and BRCA2^−/− DLD-1 cells was assessed by measuring the levels of proteins involved in DNA damage response, p-ATM, p-ATR, pBRCA1, Topoisomerase 1 (TOPO-1), pChk2, pChk1, γH2AX and H2AX. DLD-1 cells were treated with 100 nM of SN38, cWT antibody, cD31N antibody, cWT-SN38 conjugate, or cD31N-SN38 conjugate and collected for Western blot after 24 (FIG. 21A) and 48 hours (FIG. 21B). No treatment (NT) was used as control.
# [9] = test system: PEO-4 (WT) ovarian adenocarcinoma cells; assay: Cell viability of PEO-4 cells; format: cell-based; conditions: PEO-4 (WT) cells, at 7 days
# Description: Cancer cell lines were acquired from ATCC and cultured according to well known methods in the art. Treatment with cytotoxic agents, antibodies, or ADCs refers to the addition of the cytotoxic agent, antibody or ADC (i.e., DM1 or cD31N-DM1, etc.) to the culture media for a set duration.
# The effects of longer-term treatment with SN38 and cD31N-SN38 on PEO-4 (WT) and PEO-1 (BRCA2^−/−) ovarian cancer cells were investigated.
# [10] = test system: HCT116-IDH1^mut cells; assay: Clonogenic assay in HCT116-IDH1mut cells; format: cell-based; conditions: after 10 days
# Procedure: as §2, §3
smiles,measurement,setting,value
"CCc1c2c(nc3ccc(O)cc13)-c1cc3c(c(=O)n1C2)COC(=O)[C@]3(O)CC [SN38, SN-38]",cell viability,[1]; 5 days of treatment,substantial loss in cell viability
same,cell viability,[1]; 7 days of treatment,substantial loss in cell viability
same,survival fraction,[2]; 1 nM,0%
same,cell survival (clonogenic),[2]; after 7 days,low levels of cell survival in a concentration-dependent manner
same,cell viability,[3]; 5 days of treatment,substantial loss in cell viability
same,cell viability,[3]; 7 days of treatment,substantial loss in cell viability
same,EC50 values compared between treatments,[4],lower EC50 value than both 3E10-SN38 conjugates
same,EC50 values compared between treatments,[5],lower EC50 value than both 3E10-SN38 conjugates
same,cell viability at the highest concentrations,[6],about 0%
same,EC50,[6]; 7 days of treatment,2.8 nM
same,TOPO-1 levels,[7],TOPO-1 levels were also reduced
same,expression of DNA damage response proteins,[7],increased expression of DNA damage response proteins
same,protein levels of DNA damage response proteins,"[8]; BRCA2-/- DLD-1, 100 nM, 24 and 48 hour time points","increased the protein levels of DNA damage response proteins such as γH2AX, p-ATM, and p-ATR"
same,TOPO-1 levels,"[8]; BRCA2-/- DLD-1, 100 nM, 24 and 48 hours",reduced TOPO-1 levels
same,γH2AX induction (Western blot),"[8]; BRCA2-/- DLD-1, 100 nM, 24 hours (Example 10)",7H2AX was induced
same,γH2AX protein levels (Western blot),"[8]; BRCA2-/- DLD-1 cells, 100 nM, 48 hours (Example 5)",induced the highest levels of γH2AX expression
same,cell viability,[9],reduced cell viability in a concentration-dependent manner resulting in low EC50 values
same,cell survival (clonogenic),[10],low levels of cell survival
